Holding throughout (format): physicochemical
Series [1] in a line: Solid form analysis of salt batches (XRPD, DSC, TGA, GVS). As to conditions: hydrochloride salt batches; hydrochloride. The source says: Initial studies into compound I involved analysis of the hydrochloride salt. It was found as summarised in Table 1 below, that the initially prepared hydrochloride salt produces an inconsistent solid form with significant variability in the DSC, TGA, GVS and XRPD pattern (see FIGS. 1 to 16).
The samples of both hydrochloride (comparative) and citrate salts were subjected to X-ray diffraction to determine the characteristic X-ray diffraction pattern. The conditions used were as follows: X-Ray Powder Diffraction patterns were collected on a Siemens D5000 diffractometer using Cu Kα radiation (40 kV, 40 mA), θ-θ goniometer, divergence of V20 and receiving slits, a graphite secondary monochromator and a scintillation counter. The instrument is performance checked using a certified Corundum standard (NIST 1976).
Samples run under ambient conditions were prepared as flat plate specimens using powder as received. Approximately 35 mg of the sample was gently packed into a cavity cut into polished, zero-background (510) silicon wafer. The sample was rotated in its own plane during analysis. The details of the data collection are: • Angular range: 2 to 42°2θ • Step size: 0.05°2θ • Collection time: 4 s·step^1.
Alternatively, X-Ray Powder Diffraction patterns were collected on a Bruker AXS C2 GADDS diffractometer using Cu Kα radiation (40 kV, 40 mA), automated XYZ stage, laser video microscope for auto-sample positioning and a HiStar 2-dimensional area detector. X-ray optics consists of a single Gabel multilayer mirror coupled with a pinhole collimator of 0.3 mm. The beam divergence, i.e. the effective size of the X-ray beam on the sample, was approximately 4 mm. A θ-θ continuous scan mode was employed with a sample-detector distance of 20 cm which gives an effective 2θ range of 3.2°-29.7°. Typically the sample would be exposed to the X-ray beam for 120 seconds.
Samples run under ambient conditions were prepared as flat plate specimens using powder as received without grinding. Approximately 1-2 mg of the sample was lightly pressed on a glass slide to obtain a flat surface.

Series [2] can be described thus: Thermal gravimetric analysis (TGA). Here is the method: The samples of both hydrochloride (comparative) and citrate salts were subjected to thermal gravimetric analysis and differential scanning calorimetry under the following conditions. DSC data were collected on a TA Instruments Q2000 equipped with a 50 position auto-sampler. The instrument was calibrated for energy and temperature calibration using certified indium. Typically 0.5-3 mg of each sample, in a pin-holed aluminium pan, was heated at 10° C.·min^−1 from 25° C. to 270° C.
TGA data were collected on a TA Instruments Q500 TGA, equipped with a 16 position auto-sampler. The instrument was temperature calibrated using certified Alumel. Typically 5-30 mg of each sample was loaded onto a pre-tared platinum crucible and aluminium DSC pan, and was heated at 10° C.·min^−1 from ambient temperature to 300° C. A nitrogen purge at 60 ml·min^−1 was maintained over the sample. The instrument control software was Thermal Advantage v4.6.6 and the data were analysed using Universal Analysis v4.3A. Alternatively, TGA data were collected on a Mettler TGA/SDTA 851e equipped with a 34 position auto-sampler. The instrument was temperature calibrated using certified indium. Typically 5-30 mg to of each sample was loaded onto a pre-weighed aluminium crucible and was heated at 10° C.·min^−1 from ambient temperature to 300° C. A nitrogen purge at 50 ml·min^−1 was maintained over the sample. The instrument control and data analysis software was STARe v9.01.

Series [3] in a line: Gravimetric Vapour Sorption (GVS) with post-GVS XRPD. The note with it: for GVS mass lost on going to dryness: from 90% RH to dryness; for GVS mass lost on going to dryness / solid form / XRPD pattern post GVS compared with before: hydrochloride; for solid form / XRPD pattern post GVS compared with before: XRPD after GVS experiment; for GVS mass gain: from 40% RH to 90% RH.
Another series in a line: Karl-Fischer analysis.
Series [4] can be described thus: Stress tests at elevated temperature and humidity, analysed by XRPD. As to the method: The group three material was stressed under conditions which might cause it is to convert to group one material or, indeed, another hydrated or polymorphic form. Thus samples were stored at 40° C./75% RH and also at 60° C./96% RH and analysed at regular intervals by XRPD.
The stability of the citrate salt group A material was tested in harsher conditions, when the samples were kept for a week in a humidity chamber at 60° C. and 96% RH.

Series [5] can be described thus: Maturation of citrate salt in 27 solvents, solids analysed by XRPD. Here is the method:
In order to determine the propensity of polymorphism for the citrate salt the group A material was maturated in 27 different solvents. A small amount of solid was slurried with the corresponding solvent (see Table 4 below) and stored in the incubator and subjected to 4 h-heat/cool cycles at 50° C./r.t. for 24 h. The solvents were then removed under vacuum, and the remaining solids analysed by XRPD.

Counter-ions that a name gives are not always drawn. Like-named read-outs stand apart in the source and are kept apart here.

Consider `C1=CCOCc2cc(ccc2OCCN2CCCC2)Nc2nccc(n2)-c2cccc(c2)COC1.Cl` [Batch HCl 1, 11-(2-pyrrolidin-1-yl-ethoxy)-14,19-dioxa-5,7,26-triaza-tetracyclo[19.3.1.1(2,6).1(8,12)]heptacosa-1(25),2(26),3,5,8,10,12(27),16,21,23-decaene hydrochloride], for which, in series [1], the “Solid Form Comment” value is listed as “Group 1 + 3 + amorphous”. The “equivalents of water corresponding to TGA weight loss” value (from here on “equivalents … to TGA weight loss”) in series [2] (hydrochloride) is recorded as 1.4 equivalents of water. In series [2] (up to 100° C.), the “TGA two stage weight loss, total” value is 4.5%. The “GVS adsorption of water in the initial adsorption cycle” value in series [3] (at 90% RH) was found to be 5.5%. Further, in series [3], the “GVS mass lost on going to dryness” value was 5%. Besides, the GVS mass regained in series [3] (from dryness to 40% RH) was 2%. Moreover, in series [3] (whole GVS cycle), the GVS total gain amounted to 2%.
As to `C1=CCOCc2cc(ccc2OCCN2CCCC2)Nc2nccc(n2)-c2cccc(c2)COC1.Cl` [Batch HCl 5, 11-(2-pyrrolidin-1-yl-ethoxy)-14,19-dioxa-5,7,26-triaza-tetracyclo[19.3.1.1(2,6).1(8,12)]heptacosa-1(25),2(26),3,5,8,10,12(27),16,21,23-decaene hydrochloride], in series [1], the “Solid Form Comment” value is on record as “Group 2”.
On to `C1=CCOCc2cc(ccc2OCCN2CCCC2)Nc2nccc(n2)-c2cccc(c2)COC1.Cl` [Batch HCl 2, 11-(2-pyrrolidin-1-yl-ethoxy)-14,19-dioxa-5,7,26-triaza-tetracyclo[19.3.1.1(2,6).1(8,12)]heptacosa-1(25),2(26),3,5,8,10,12(27),16,21,23-decaene hydrochloride], for which the “Solid Form Comment” value in series [1] was “Predominately Group 1”. Moreover, the “decomposition / degradation temperature in TGA” value in series [2] is 260 °C. In series [2] (hydrochloride), the “water lost in the first phase of the TGA” value amounted to 5.6% and the “equivalents … to TGA weight loss” value was 1.67 equivalents of water.
With `C1=CCOCc2cc(ccc2OCCN2CCCC2)Nc2nccc(n2)-c2cccc(c2)COC1.Cl` [Batch HCl 4, 11-(2-pyrrolidin-1-yl-ethoxy)-14,19-dioxa-5,7,26-triaza-tetracyclo[19.3.1.1(2,6).1(8,12)]heptacosa-1(25),2(26),3,5,8,10,12(27),16,21,23-decaene hydrochloride], the “Solid Form Comment” value in series [1] is listed as “Group 1”. Besides, the TGA mass loss in series [2] (between ambient and 108° C.) was determined as 6.5%. In addition, in series [3], the “solid form / XRPD pattern post GVS compared with before” value is recorded as “unchanged”, the GVS mass gain is on record as 1.6% and the “GVS mass lost on going to dryness” value came out at 2.8%.
Take `C1=CCOCc2cc(ccc2OCCN2CCCC2)Nc2nccc(n2)-c2cccc(c2)COC1.Cl` [Batch HCl 3, 11-(2-pyrrolidin-1-yl-ethoxy)-14,19-dioxa-5,7,26-triaza-tetracyclo[19.3.1.1(2,6).1(8,12)]heptacosa-1(25),2(26),3,5,8,10,12(27),16,21,23-decaene hydrochloride]: in series [1], the “Solid Form Comment” value is “Group 1 + 3 + little amorphous”. In series [2], the “decomposition / degradation temperature in TGA” value was found to be 260 °C and the “total weight lost in the TGA” value was 3.4%. The “another loss in TGA” value in series [2] (at 165° C.) stood at 1.97%. In series [2] (hydrochloride), the “water lost in the first phase of the TGA” value is reported as 1.5% and the “equivalents … to TGA weight loss” value is reported as 0.5 equivalents of water. In “Karl-Fischer analysis”, the “equivalents of water by Karl-Fischer analysis” value is 1.1 equivalents and the “water content by Karl-Fischer analysis” value came out at 3.79%.
For `C1=CCOCc2cc(ccc2OCCN2CCCC2)Nc2nccc(n2)-c2cccc(c2)COC1.Cl` [Batch HCl 6, 11-(2-pyrrolidin-1-yl-ethoxy)-14,19-dioxa-5,7,26-triaza-tetracyclo[19.3.1.1(2,6).1(8,12)]heptacosa-1(25),2(26),3,5,8,10,12(27),16,21,23-decaene hydrochloride], the “Solid Form Comment” value in series [1] is reported as “Group 3”. In series [2] (hydrochloride), the “decomposition / degradation temperature in TGA” value is “around 240 °C”. The “TGA weight loss before degradation / melt with decomposition” value in series [2] (result in words) is on record as “very little weight loss”. In series [3], the “solid form / XRPD pattern post GVS compared with before” value is given as “unchanged”, the GVS mass gain is 1.6% and the “GVS mass lost on going to dryness” value stood at 2.4%.
For `C1=CCOCc2cc(ccc2OCCN2CCCC2)Nc2nccc(n2)-c2cccc(c2)COC1.Cl` [group 3 hydrochloride, 11-(2-pyrrolidin-1-yl-ethoxy)-14,19-dioxa-5,7,26-triaza-tetracyclo[19.3.1.1(2,6).1(8,12)]heptacosa-1(25),2(26),3,5,8,10,12(27),16,21,23-decaene hydrochloride], the “solid form by XRPD after stress (Comment)” value is “Group three” in series [4] (40° C./75% RH, 0 hrs); “Group three” in series [4] (40° C./75% RH, 24 hrs); “Group three” in series [4] (40° C./75% RH, 48 hrs); “Group one” in series [4] (40° C./75% RH, 72 hrs); “Group three” in series [4] (60° C./96% RH, 0 hrs); “Group one” in series [4] (60° C./96% RH, 24 hrs).
In the case of `C1=C/COCc2cc(ccc2OCCN2CCCC2)Nc2nccc(n2)-c2cccc(c2)COC/1` [citrate salt group A material, 11-(2-pyrrolidin-1-yl-ethoxy)-14,19-dioxa-5,7,26-triaza-tetracyclo[19.3.1.1(2,6).1(8,12)]heptacosa-1(25),2(26),3,5,8,10,12(27),16,21,23-decaene], in series [4] (one week in humidity chamber at 60° C. and 96% RH), the “change of crystalline pattern (XRPD) after stress” value is on record as “no changes are observed”. For the same compound, the “Solid Form after maturation” value in series [5] (1,4-dioxane), in series [5] (1-butanol), in series [5] (1-pentanol), in series [5] (1-propanol), in series [5] (2-butanol) and in series [5] (2-methoxy ethanol) was “Form A” throughout. For the same compound, the “Solid Form after maturation” value in series [5] (3-methyl-1-butanol), in series [5] (Acetonitrile), in series [5] (Cyclohexane), in series [5] (DMSO), in series [5] (Dicloro-methane) and in series [5] (Ethanol) was “Form A” throughout. In addition, the “Solid Form after maturation” value in series [5] (Ethyl acetate), in series [5] (Heptane), in series [5] (IPA), in series [5] (Isobutyl acetate), in series [5] (Isopropyl acetate) and in series [5] (Methyl isobutyl ketone) was “Form A” in each case. The “Solid Form after maturation” value in series [5] (Methylethyl ketone), in series [5] (Nitromethane), in series [5] (Propyl acetate), in series [5] (TBME), in series [5] (Tetrahydro furan) and in series [5] (Toluene) was “Form A” in each case. The “Solid Form after maturation” value in series [5] (Water), in series [5] (acetone) and in series [5] (methanol) was “Form A” each time. Moreover, the “solid forms identified after maturation” value in series [5] (27 different solvents, 4 h heat/cool cycles 50° C./r.t. for 24 h) was “only one solid form”.

For the origin of these results see US9624242B2, “11-2(2-pyrrolidin-1-yl-ethoxy)-14,19-dioxa-5,7,26-triaza-tetracyclo[19.3.1.1(2,6).1(8,12)]heptacosa-1(25),2(26),3,5,8,10,12(27),16,21,23-decaene citrate salt” (CTI BIOPHARMA CORP., priority 2008, dated 2017).
